Results published in patent US20170049739A1, “PROSTACYCLIN COMPOUNDS, COMPOSITIONS AND METHODS OF USE THEREOF” (INSMED INCORPORATED, priority 2013, published 2017).
“Also recorded” adds a separate entry of the source.

Legend:
[1] = Treprostinil alkyl ester conversion to treprostinil in rat lung tissue homogenate; format: in vitro ADME; details: 37° C., 200 nM, 10 mg/mL of protein, 4 hours
Experimental: Treprostinil alkyl ester conversion to treprostinil was also measured in the presence of rat, dog and monkey lung tissue homogenate at 37° C. Mere, data were calculated based on fit of exponential increase to the maximum (experiments performed in duplicate). The results of this study are provided below in Table 2A and FIG. 37. […] Both FIG. 37 experiments (left and right graphs) were performed in duplicate and the lines represent nonlinear exponential regression assuming 1 phase decay.

[2] = Particle size characterization of treprostinil compositions (QELS); format: physicochemical; details: particles of compositions comprising the alkyl ester (FIG. 2)
Experimental: All particle size measurements were performed using a Wyatt Technology Mobius™ Zeta Potential/ Particle Sizing Instrument in Quasi-elastic light scattering (QELS) mode. Composition aiiquots were diluted 10-fold in pre-filtered (0.02 μm pore filter) ultrapure of deionized H2O. Light scattering data was collected and converted into particle size and size distribution using Dynamics® v. […] Reported average particle size diameter is based on the cumulants model, which mathematically fits particle diffusion constants (determined by the raw scattering intensities of particles in a suspension) to obtain the particle size mean and a distribution of particle sizes around the mean diameter.
Particle uniformity was determined using the software-calculated polydispersity (% PD). Polydispersity is defined as the standard deviation of the particle size distribution from the mean particle size value. % PD normalizes the polydispersity to the mean diameter by dividing by the mean size and multiplylng by 100. These parameters indicate whether a particle suspension has one or more size populations of particles (monomodal versus multimodal). […]
Dynamics® polydispersity parameter represents a monodisperse population of particles if % PD≦15. A calculated % PD≧57% represents a polydisperse population of particles.

EP2 prostanoid receptor = biological target: T1, EP2 prostanoid receptor (Homo sapiens, UniProt P43116); experiment: GloSensor cAMP assay in CHO-K1 cells co-transfected with the EP2 receptor; format: cell-based; details: for change of potency with incubation time / release profile: dose response curves at 0.5 to 8 hr incubation
T1 construct: host or cells: CHO-K1 cells, transiently co-transfected with pGloSensor-22F cAMP plasmid and pGEM-3Zf(+)
T1 sequence (P43116 whole entry): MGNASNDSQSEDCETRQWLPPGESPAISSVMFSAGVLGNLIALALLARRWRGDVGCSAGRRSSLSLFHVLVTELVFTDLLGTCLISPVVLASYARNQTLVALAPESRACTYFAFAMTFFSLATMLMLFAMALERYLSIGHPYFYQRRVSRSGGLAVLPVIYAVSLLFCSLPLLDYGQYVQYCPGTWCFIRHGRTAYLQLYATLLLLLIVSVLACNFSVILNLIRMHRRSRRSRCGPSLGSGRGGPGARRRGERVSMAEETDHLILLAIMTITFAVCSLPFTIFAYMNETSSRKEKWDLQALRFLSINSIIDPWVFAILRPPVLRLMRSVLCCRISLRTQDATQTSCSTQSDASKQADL
Source text: cAMP is a second messenger involved in signal transduction of G-protein coupled receptors (GPCRs) acting through Ga-s and Ga-i proteins. Because the treprostinil receptor is a GPCR, the assay provides an indication of whether the respective prostacyclin compound (or metabolite thereof) binds its receptor and activates the GPCR cell signaling cascade. The GloSensorTM assay harnesses a genetically modified form of firefly luciferase into which a cAMP-binding protein moiety has been inserted. Upon binding of cAMP, a conformational change is induced leading to increased light output. The EP2 prostanoid receptor was co-transfected with the GloSensorTM plasmid (Promega) into CHG-K1 cells as follows. CHO-K1 cells were harvested when the monoloayer was at 50-90% confluence. First, cells were washed with 5 mL PBS. […] The media was aspirated, and the cell pellet was resuspended in 10 mL of growth media. Cell number was determined using a hemacytometer. Each well of a culture treated 96 […] bottom plate (Costar, Cat #: 3917) was seeded with 1×10^4 cells per 100 μL antibiotic-free growth media. […] For small scale transfections of up to 20 wells, the pGLoSensor-22F cAMP plasmid (Promega, Cat #: E2301) (2 μg): (EP2) (10 ng) (Origene, Cat #: SC126558) : pGEM-3Zf(+) (10 ng) (Promega, Cat #: P2271) ratio was diluted to a final concentration of 12.6 ng/μL (total plasmid) in Opti-MEM I reduced-serum medium (Life Technologies, Cat #: 1985062). Next, 6 μL of FuGENE HD transfection reagent (Promega, Cat #: E2311) was added to 160 μL of diluted plasmid and mixed carefully by gentle pipetting. The complex was incubated at room temperature for 0 to 10 minutes, and then 8 μL of the complex was added per well of a 96 well white assay plate (Costar, Cat #: 3917) and gently mixed without disturbing the cell monolayer. […] Following incubation, cells were treated and analyzed. For larger scale transfections, the aforementioned steps were scaled up accordingly, and cells were frozen following the last incubation. In order to prepare frozen transfected CHO-K1 cells, the media was aspirated from culture flasks and cells were rinsed with 5 mL PBS. […] Cell number was determined using a hemacytometer. The media was aspirated, and the cell pellet was resuspended in freezing media (Millipore, cat #: S-002-5F) at 2.5×10^6 cells/vial. Transfected cells were incubated overnight at -80° C. before transfer to liquid nitrogen for long term storage. […] In preparation for cAMP measurement, the cells were equilibrated with the GloSensor cAMP reagent prior to treatment. For equilibration, the medium was carefully removed from the individual well. Next, 100 μL of equilibration medium (6% v/v of Glosensor Reagent stock solution (Promega, Cat #: E291), 10% FBS (Hyclone, Cat #: SH30071.03) and 88% CO2 independent medium (Life Technologies, Cat #: 18045088)) was added per well of the 96-well plate, and added to the side of each well. The plate was then incubated for 2 hours at room temperature. A first pre-read measurement was taken using a microplate reader (MicroLumat Plus). Plates were incubated for an additional 10 minutes at room temperature, followed by a second pre-read measurement. […] Following treatment, each plate was read every 5 minutes for the duration of the assay using a microplate reader (MicroLumat Plus). In order to determine the fold change in cAMP relative to the control, the transfection efficiency was first determined by dividing the second pre-read measurement by the average of the corresponding pre-read measurements. Next, the normalized relative light units (RLUs) of the samples were determined by dividing the plate read measurement by the transfection efficiency. The fold change in cAMP relative to the control was then determined by dividing the normalized RLU of the samples by the normalized RLU of the control. […] Results from the three highest concentrations are provided at FIG. 3A (10 μM), FIG. 3B (1 μM) and FIG. 3C (0.1 μM). […]

physchem = details: organic solvent or mixture, thermodynamic from solid
Experimental: Selected treprostinil derivatives were evaluated for the use in a metered dose inhaler (MDI).
5 mg of each treprostinil compound was added in a glass bottle. Specific amount of ethanol was added by weight. An MDI valve was crimped to each bottle, and HFA propellant added through the valve to the total volume of 5 mL. Compounds were allowed to dissolve for 24 hours at room temperature. The formulations were assessed visually for solubility. The goal was to estimate the minimum ethanol concentration required to solubilize each compound in propellant.
Soluble samples presented as clear and colorless solutions. […] Non-soluble samples had white precipitate or crystals formed. Ethanol was added as a solubility aid.

[3] = Treprostinil pharmacokinetics in anaesthetised, ventilated rats after nebulized dosing; format: in vivo, rat; details: nebulized solution
Experimental: Male Sprague Dawley rats wrere anaesthetised and prepared with endotracheal tube for ventilation. The right femoral vein was cannulated to facilitate blood collections. Terminal lung samples were taken for analysis only 6 hours after dosing. […] Systemic blood pressure (mSAP), heart rate (HR), and arterial oxygen saturation (SaO2). Physiologic parameters were measured during normoxia (fraction of inspired oxygen [FrO2]=0.21, SaO2 ≈90%) and for 2 to 3 hours during hypoxia (FrO2=0.10, SaO2≈50%).

[4] = dog, in vivo
Experimental: Twelve beagle dogs of either sex were randomly assigned to different inhaled doses of treprostinil in PBS or the compound of Formula (A) wherein R2=
Formulations were nebulized with an Aeroneb nebulizer (MMAD: 2.5-4 μm) delivered into a 500 ml expansion chamber. Formulations were nebulized for 2 min at ventilator settings of 90 ml/breath, 15 breaths/min (delivered volume=2.7 L) and collected on a filter. Drug amount (μg) on the filter was measured by HPLC to calculate the concentration of drug delivered through the ventilator circuit (μg/L).
Dosimetry was performed in propofol-anesthetized dogs in which nebulized drugs were introduced into a mixing chamber interposed on the inspiratory limb of a canine respirator. Technical trials were performed before each experiment to measure the concentration of drug (μg/L) delivered for each breath. The inhaled drug dose (μg/kg) was calculated using the formula: Inhaled Drug Dose (μg/kg)=Drug Cone. (μg/L)×Minute Ventilation (L/min.)×Time (min.)/Body Weight (kg).
Dosimetry was performed in propofol-anesthetized, artificially ventilated dogs in which nebulized drugs were introduced into a mixing chamber interposed on the inspiratory limb of the respirator. Technical trials were performed before each experiment measuring the concentration of drug (μg/L) per breath, minute ventilation and time required to achieve a targeted pulmonary dose. […] Clinical signs (cough, rapid shallow breathing, emesis and pale gums) were also monitored.

cough reflex = experiment: Cough reflex in guinea pigs exposed to aerosols; format: in vivo, guinea pig
Experimental: has the following components: Aerosols were generated with an Ultra-Neb Pro nebulizer (nebulizer output 0.36 mL/min.) that was mixed with inspired air delivered at a rate of 2 L/min. […] Coughs were detected by visual observations, plethysmograph recordings and cough sounds.

[5] = rat, in vivo
Experimental: Nebulized treprostinil (TRE) solution and treprostinil alkyl ester formulations were administered (at 15 nmol/kg, or […] TRE equivalent) to anaesthetised-ventilated rats (6-hour studies) or to conscious rats by nose-only inhalation (24-hour studies). Blood and lung samples were collected at specified time points. TRE and treprostinil alkyl ester concentrations in blood plasma and lung tissue were measured by HPLC/MS/MS analysis.
Male Sprague Dawley rats were placed in restraining tubes and exposed to nebulised drugs via the Jaeger-NYU Nose-Only Directed-Flow Inhalation Exposure System (CH Technologies, Westwood, N.J.) (FIG. 31), Test articles (6 mL at specific concentration) were nebulised using the Aeroneb nebuliser to deliver a predetermined estimated pulmonary dose. Blood and lung tissue samples were taken at selected times after nebulization of the drags over a 24-hour period.

[6] = Tolerability and pharmacokinetics in rats after 14 consecutive days of inhaled C16-TR (T748); format: in vivo, rat; details: T748, 0.6-18 μg/kg inhaled
Experimental: Body weights were recorded daily and organ weights (lungs, heart, liver) were measured 24 hr, after the last drug dose.

[7] = nebulized concentration of 30 μg/mL

## CCCCCCCCCCCCCCOC(=O)COc1cccc2c1C[C@H]1C[C@@H](O)[C@H](CC[C@@H](O)CCCCC)[C@H]1C2 [C14-TR, tetradecyl-treprostinil]
[1]
  Rate of treprostinil alkyl ester conversion: 0.4 nmOL/h * g of protein
[2]
  polydispersity (% PD): around 15 % PD
EP2 prostanoid receptor
  change of potency with incubation time / release profile: increases with incubation time
physchem
  solubility at 24 h: < 1000 µg/mL
physchem; Solubility in HFA-134a with added ethanol
  solubility at 24 h: < 1000 µg/mL

## CCCCC[C@H](O)CC[C@@H]1[C@H]2Cc3cccc(OCC(=O)O)c3C[C@H]2C[C@H]1O [Treprostinil, (1R,2R,3aS,9aS)-[[2,3,3a,4,9,9a-hexahydro-2-hydroxy-1-[(3S)-3-hydroxyoctyl]-1H-benz[f]inden-5-yl]oxy]acetic acid]
EP2 prostanoid receptor; 10 μM, FIG. 3A
  time for which cAMP level was sustained: not exhibited
EP2 prostanoid receptor; compositions shown in FIG. 3, 8 hours time course
  Max cAMP level (Fold): ~16 Fold
EP2 prostanoid receptor; compositions shown in FIG. 4, 5 μM, 8 hours time course
  Max cAMP level (Fold): ~14 Fold
EP2 prostanoid receptor
  change of potency with incubation time / release profile: potency decreases with increasing incubation time
EP2 prostanoid receptor; effect of nebulization study (FIG. 6), head prints (5 μM)
  Max cAMP level (Fold): ~15 Fold
[3]
  time by which measurable levels of TRE were not seen in the lungs: < 6 h
  time to which measurable levels of TRE were seen in the blood plasma: ≤ 4 h
[4]; both, beagle
  time by which plasma treprostinil was below the level of quantification: ≤ 4 h
  treprostinil plasma Cmax relative to similar inhaled doses of T623: 15-20 fold
[4]
  period over which plasma levels of treprostinil were sustained: disappeared within a few hours
Cough reflex; guinea pigs, aerosol 10 min.
  exposure concentration consistently evoking cough: ≥ 30 µg/mL
Cough reflex; [7]
  cough bouts: 1-4
  guinea pigs with cough: 7 of 7
  total number of coughs: 36+9 coughs

## hexadecyl-treprostinil [C16-TR]
EP2 prostanoid receptor
  change of potency with incubation time / release profile: increases with incubation time
EP2 prostanoid receptor; unformulated compounds, 10 μM and 5 μM, FIG. 21
  ranking of activity of the treprostinil compounds: C12-TR>C14-TR>5-nonanyl-TR>C16-TR
[5]
  release kinetics of treprostinil over 24 hours: independent of dose
[4]
  adverse clinical signs in the dose-response study: adverse clinical signs were seen in only 1 dog
[6]
  tolerability, body weights and organ weights: no tolerability issues or significant changes (relative to PBS) in body weights and organ weights; also recorded: well tolerated
